According to patent publication US4243674A, “9-Hydroxydibenzo[b,d]pyrans and intermediates therefore” (priority 1978, dated 1981):
Where two headings read alike, the source gives them in different places.

Columns and labels:
[1] = system: phenylbenzoquinone-induced writhing; assay: Suppression of phenylbenzoquinone irritant-induced writhing (PBQ); format: in vivo, Carworth Farms CF-1 mice; details: mice; for ED50: Mus musculus, read-out: ANALGESIC ACTIVITY ED50, PBQ
Procedure: Test Using Chemical Nociceptive Stimuli
Suppression of Phenylbenzoquinone Irritant-Induced Writhing
Groups of 5 Carworth Farms CF-1 mice are pretreated subcutaneously or orally with saline, morphine, codeine or the test compound. Twenty minutes (if treated subcutaneously) or fifty minutes (if treated orally) later, each group is treated with intraperitoneal injection of phenylbenzoquinone, an irritant known to produce abdominal contractions. The mice are observed for 5 minutes for the presence or absence of writhing starting 5 minutes after the injection of the irritant. MPE50 's of the drug pretreatments in blocking writhing are ascertained.
(§1) Results of the above tests are recorded as percent maximum possible effect (% MPE). The % MPE of each group is statistically compared to the % MPE of the standard and the predrug control values. The % MPE is calculated as follows: [formula]
(§2) By means of the above procedures, the analgesic activity of several compounds of this invention and of certain prior art compounds are determined. The data are reported in terms of maximum possible effect.
(§3) PBQ=phenylbenzoquinone-induced writhing; TF=tail flick; HP=hot plate; RTC=rat tail clamp; FJ=flinch jump; and TI=tail immersion assays.

[2] = system: tail flick; assay: Mouse tail flick analgesic testing (TF); format: in vivo, mice; details: for ANALGESIC ACTIVITY ED50, TF / ED50: tail flick, mice; for ED50: Mus musculus
Text: (§4) Tests Using Thermal Nociceptive Stimuli
(b) Mouse Tail Flick Analgesic Testing
Tail flick testing in mice is modified after D'Amour and Smith, J. Pharmacol. Exp. Ther., 72, 74-79 (1941), using controlled high intensity heat applied to the tail. Each mouse is placed in a snug-fitting metal cylinder, with the tail protruding through one end. This cylinder is arranged so that the tail lies flat over a concealed heat lamp. At the onset of testing, an aluminum flag over the lamp is drawn back allowing the light beam to pass through the slit and focus onto the end of the tail. A timer is simultaneously activated. The latency of a sudden flick of the tail is ascertained. Untreated mice usually react within 3-4 seconds after exposure to the lamp. The end point for protection is 10 seconds. Each mouse is tested at 0.5 and 2 hours after treatment with morphine and the test compound. Morphine has an MPE50 of 3.2-5.6 mg./kg. (s.c.).
as §1, §2, §3

[3] = system: hot plate; assay: Mouse hot plate analgesic testing (HP); format: in vivo, mice; details: for ANALGESIC ACTIVITY ED50, HP / ED50: hot plate, mice; for ED50: Mus musculus
Procedure: as §4
(a) Mouse Hot Plate Analgesic Testing
The method used is modified after Woolfe and MacDonald, J. Pharmacol. Exp. Ther., 80, 300-307 (1944). A controlled heat stimulus is applied to the feet of mice on a 1/8" thick aluminum plate. A 250 watt reflector infrared heat lamp is placed under the bottom of the aluminum plate. A thermal regulator, connected to thermistors on the plate surface, programs the heat lamp to maintain a constant temperature of 57° C. Each mouse is dropped into a glass cylinder (61/2" diameter) resting on the hot plate, and timing is begun when the animal's feet tough the plate. The mouse is observed at 0.5 and 2 hours after treatment when the test compound for the first "flicking"movements of one or both hind feet, or until 10 seconds elapse without such movements. Morphine has an MPE50 =4-5.6 mg./kg. (s.c.).
as §1, §2, §3

[4] = system: rat tail clamp; assay: Haffner tail pinch procedure / rat tail clamp (RTC); format: in vivo, male albino rats, Charles River (Sprague-Dawley) CD strain; details: for ED50: 1 hour, read-out: ANALGESIC ACTIVITY ED50, RTC 1 hour
Procedure: Tests Using Pressure Nociceptive Stimuli
Effect on the Haffner Tail Pinch Procedure
A modification of the procedure of Haffner, Experimentelle Prufung Schmerzstillender. Mittel Deutch Med. Wschr., 55, 731-732 (1929) is used to ascertain the effects of the test compound on aggressive attacking responses elicited by a stimulus pinching the tail. Male albino rats (50-60 b.) of the Charles River (Sprague-Dawley) CD strain are used. Prior to drug treatment, and again at 0.5, 1, 2 and 3 hours after treatment, a Johns Hopkins 2.5-inch "bulldog" clamp is clamped onto the root of the rat's tail. The endpoint at each trial is clear attacking and biting behavior directed toward the offending stimulus, with the latency for attack recorded in seconds. The clamp is removed in 30 seconds if attacking has not yet occurred, and the latency of response is recorded as 30 seconds. Morphine is active at 17.8 mg./kg. (i.p.).
as §1, §2, §3

[5] = system: tail immersion; assay: Tail immersion procedure (TI); format: in vivo, male albino mice, Charles River CD-1 strain; details: Mus musculus, 0.5 h, read-out: ANALGESIC ACTIVITY ED50, TI 1/2 hour
Procedure: (c) Tail Immersion Procedure
The method is a modification of the receptacle procedure developed by Benbasset, et al., Arch. int. Pharmacodyn., 122, 434 (1959). Male albino mice (19-21 g.) of the Charles River CD-1 strain are weighed and marked for identification. Five animals are normally used in each drug treatment group with each animal serving as its own control. For general screening purposes, new test agents are first administered at a dose of 56 mg./kg. intraperitoneally or subcutaneously, delivered in a volume of 10 ml./kg. Preceding drug treatment and at 0.5 and 2 hours post drug, each animal is placed in the cylinder. Each cylinder is provided with holes to allow for adequate ventilation and is closed by a round nylon plug through which the animal's tail protrudes. The cylinder is held in an upright position and the tail is completely immersed in the constant temperature waterbath (56° C.). The endpoint for each trial is an energetic jerk or twitch of the tail coupled with a motor response. In some cases, the endpoint may be less vigorous post drug. To prevent undue tissue damage, the trial is terminated and the tail removed from the waterbath within 10 seconds. The response latency is recorded in seconds to the nearest 0.5 second. A vehicle control and a standard of known potency are tested concurrently with screening candidates. If the activity of a test agent has not returned to baseline values at the 2-hour testing point, response latencies are determined at 4 and 6 hours. A final measurement is made at 24 hours if activity is still observed at the end of the test day.
as §1, §2, §3

[6] = system: flinch jump; assay: Flinch-jump test (FJ); format: in vivo, male albino rats, Charles River (Sprague-Dawley) CD strain; details: Rattus norvegicus, rats, 2 hours, read-out: ANALGESIC ACTIVITY ED50, FJ 2 hours
Text: Tests Using Electrical Nociceptive Stimuli
A modification of the flinch-jump procedure of Tenen, Psychopharmacologia, 12, 278-285 (1968) is used for determining pain thresholds. Male albino rats (175-200 g.) of the Charles River (Sprague-Dawley) CD strain are used. Prior to receiving the drug, the feet of each rat are dipped into a 20% glycerol/saline solution. The animals are then placed in a chamber and presented with a series of 1-second shocks to the feet which are delivered in increasing intensity at 30-second intervals. These intensities are 0.26, 0.39, 0.52, 0.78, 1.05, 1.31, 1.58, 1.86, 2.13, 2.42, 2.72 and 3.04 mA. Each animal's behavior is rated for the presence of (a) flinch, (b) squeak and (c) jump or rapid forward movement at shock onset. Single upward series of shock intensities are presented to each rat just prior to, and at 0.5, 2, 4 and 24 hours subsequent to drug treatment.
as §1, §2, §3

Row | Structure (SMILES) | ED50 [1] [mg/kg] | ED50 [2] [mg/kg] | ED50 [3] [mg/kg] | ED50 [4] [mg/kg] | ED50 [6] [mg/kg] | ED50 ([5]; tail immersion, mice, 1/2 hour) [mg/kg] | also measured
1 | CN1CC[C@]23c4c5ccc(O)c4O[C@H]2[C@@H](O)C=C[C@H]3[C@H]1C5 [morphine, reference compound] | – | – | – | – | – | – | ANALGESIC ACTIVITY ED50, PBQ [1]: 0.8 mg/kg; MPE50 tail flick ([2]; s.c.): 3.2 to 5.6 mg/kg; ANALGESIC ACTIVITY ED50, TF [2]: 3.8 mg/kg; ANALGESIC ACTIVITY ED50, HP [3]: 4.7 mg/kg; MPE50 hot plate ([3]; s.c., 57° C. plate): 4 to 5.6 mg/kg; ANALGESIC ACTIVITY ED50, RTC (1/2 hr.) ([4]; 1/2 hr. (morphine only), 30 min): 2.9 mg/kg; ED50 [5]: 4 mg/kg
2 | CC(CCCOc1ccccc1)c1cc(O)c2c(c1)OC(C)(C)[C@@H]1CC[C@@H](O)C[C@@H]21 (relative stereo) [CH(CH3)(CH2)3OC6 H5, dl-6aβ,7,8,9,10,10aα-hexahydro-1-hydroxy-6,6-dimethyl-3-(1-methyl-4-phenoxybutyl)-6H-dibenzo[b,d]pyran-9β-ol] | 0.39 | 1.2 | ~10 | – | – | – | –
3 | CC(CCCc1ccccc1)c1cc(O)c2c(c1)OC(C)C1CCC(O)CC21 (racemic) [CH(CH3)(CH2)3C6 H5^(a), dl-6aα-7,8,9,10,10a-hexahydro-1-hydroxy-6α-methyl-3-(1-methyl-4-phenylbutyl)-6H-dibenzo[b,d]pyran-9β-ol] | – | – | – | – | – | – | ANALGESIC ACTIVITY ED50, PBQ [1]: 0.94 mg/kg; ANALGESIC ACTIVITY ED50, TF [2]: 1.6 mg/kg; ANALGESIC ACTIVITY ED50, HP [3]: 5.6 mg/kg
4 | CC1(C)Oc2cc(OC3CCCCC3)cc(O)c2[C@@H]2C[C@H](O)CC[C@H]21 (relative stereo) [OC6 H11, dl-6aβ,7,8,9,10,10aα-1-hydroxy-6,6-dimethyl-3-cyclohexyloxy-6H-dibenzo[b,d]pyran-9β-ol] | 5.3 | > 10 | > 10 | – | – | – | –
5 | CC(CCCc1ccccc1)c1cc(O)c2c(c1)OC(C)(C)[C@@H]1CC[C@@H](O)C[C@@H]21 (relative stereo) [CH(CH3)(CH2)3C6 H5, dl-6aβ,7,8,9,10,10aα-Hexahydro-1-hydroxy-6,6-dimethyl-3-(1-methyl-4-phenylbutyl)-6H-dibenzo[b,d]pyran-9β-ol] | 0.062 | 0.32 | 0.75 | 1.8 | 0.11 | 0.3 | –
6 | CC(CCCCc1ccccc1)c1cc(O)c2c(c1)OC(C)(C)[C@@H]1CC[C@@H](O)C[C@@H]21 (relative stereo) [CH(CH3 (CH2)4C6 H5, dl-6aβ,7,8,9,10,10aα-hexahydro-1-hydroxy-6,6-dimethyl-3-(1-methyl-5-phenylpentyl)-6H-dibenzo[b,d]pyran-9β-ol] | 1.33 | 2.8 | 3.9 | < 3.2 | 0.42 | 3.5 | –
7 | CCCCCC(C)C(C)c1cc(O)c2c(c1)OC(C)(C)[C@@H]1CC[C@@H](O)C[C@@H]21 (relative stereo) [CH(CH3)CH(CH3)C5 H11, reference compound] | 0.1 | 0.35 | 1.1 | 0.44 | 0.11 | 0.38 | –
8 | CC(CCCc1ccncc1)c1cc(O)c2c(c1)OC(C)(C)[C@@H]1CC[C@@H](O)C[C@@H]21 (relative stereo) [CH2 (CH3)(CH2)34-pyridyl, dl-6aβ,7,8,9,10,10aα-hexahydro-1-hydroxy-6,6-dimethyl-3-[1-methyl-4-(4-pyridyl)butyl]-6H-dibenzo[b,d]pyran-9β-ol] | 0.17 | – | – | – | – | – | –
9 | CC(CCOc1ccccc1)c1cc(O)c2c(c1)OC(C)(C)[C@@H]1CC[C@@H](O)C[C@@H]21 (relative stereo) [CH(CH3)(CH2)2OC6 H5, dl-6aβ,7,8,9,10,10aα-hexahydro-1-hydroxy-6,6-dimethyl-3-(1-methyl-3-phenoxypropyl)-6H-dibenzo[b,d]pyran-9β-ol] | 0.1 to 1 | – | – | – | – | – | –
10 | CCCCCc1cc(O)c2c(c1)OC(C)(C)[C@@H]1CC[C@@H](O)C[C@@H]21 (relative stereo) [C5 H11, reference compound] | 0.68 | 3.2 | ≥ 17.8 | 58 | 8 | 13 | –
11 | CC(CCc1ccccc1)Oc1cc(O)c2c(c1)OC(C)(C)[C@@H]1CC[C@@H](O)C[C@@H]21 (relative stereo) [OCH(CH3)(CH2)2C6 H5, dl-6aβ,7,8,9,10,10aα-hexahydro-1-hydroxy-6,6-dimethyl-3-(1-methyl-3-phenylpropoxy)-6H-dibenzo[b,d]pyran-9β-ol] | 0.21 | 1.3 | ~3.2 | – | – | – | –
12 | CCCCCC(C)Oc1cc(O)c2c(c1)OC(C)(C)[C@@H]1CC[C@@H](O)C[C@@H]21 (relative stereo) [OCH(CH3)C5 H11, dl-6aβ,7,8,9,10,10aα-Hexahydro-1-Hydroxy-6,6-Dimethyl-3-(2-Heptyloxy)-6H-Dibenzo[b,d]pyran-9β-ol] | 0.16 | 0.46 | 1.2 | 0.34 | 0.3 | 0.7 | –
13 | CC(CCc1ccccc1)c1cc(O)c2c(c1)OC(C)(C)[C@@H]1CC[C@@H](O)C[C@@H]21 (relative stereo) [CH(CH3)(CH2)2C6 H5, dl-6aβ,7,8,9,10,10aα-hexahydro-1-hydroxy-6,6-dimethyl-3-(1-methyl-3-phenylpropyl)-6H-dibenzo[b,d]pyran-9β-ol] | 5 | > 10 | > 10 | – | – | – | –
